Test results from ChEMBL document CHEMBL5532636 (Eur J Med Chem, 2023).
≈ marks a conversion by molar mass, not a printed value.

Columns and labels:
[1] = target: Replicase polyprotein 1ab (Severe acute respiratory syndrome coronavirus 2, UniProt P0DTD1); assay: Inhibition of SARS-CoV-2 PLpro using Ubiquitin-AMC as substrate by continuous kinetic assay
[2] = Drug metabolism in Sprague-Dawley rat assessed as circulating drug conjugates by measuring AUC (0 to 360 min) at 37 umol/kg, iv; assay type: ADME; settings: in vivo, 6 h, dose 37 µmol/kg
[3] = Oral bioavailability in monkey; assay type: ADME, organism-based, Macaca mulatta; settings: rhesus monkey, in vivo
[4] = tested on: Severe acute respiratory syndrome coronavirus 2; assay: Binding affinity to SARS-CoV-2 nsp12 assessed as change in melting temperature preincubated for 20 mins followed by heating by thermal shift assay
[5] = target: Replicase polyprotein 1ab (Severe acute respiratory syndrome coronavirus 2) (UniProt P0DTD1); assay: Binding affinity to SARS-CoV-2 nsp14 assessed as change in melting temperature preincubated for 20 mins followed by heating by thermal shift assay
[6] = AUC (0 to 360 min) in Sprague-Dawley rat at 37 umol/kg, iv; assay type: ADME; settings: in vivo, 6 h, dose 37 µmol/kg
Bovine coronavirus = assay: (§1) Antiviral activity against B-CoV infected in human HRT-18 cells assessed as inhibition in viral replication at 25 ug/ml preincubated with cell culture for 1 hr and further infected with virus for 1 hr followed by removal of virus particles and subsequent replacement of medium containing compound measured for 96 hrs post-infection by RT-PCR analysis relative to control; assay type: functional, HRT-18 cell line; settings: Betacoronavirus 1, HRT-18, time 98 hrs
[7] = target: Replicase polyprotein 1ab (Severe acute respiratory syndrome coronavirus 2) (UniProt P0DTD1); assay: Inhibition of full-length SARS-CoV-2 PLpro expressed in Escherichia coli BL21(DE3) using RLRGG-AMC as substrate at 50 uM preincubated for 10 mins followed by substrate addition measured for 5 mins by FRET assay relative to control; settings: time 15.0 min
SARS-CoV-2 [8] = assay: Inhibition of SARS-CoV-2 pseudovirus entry in human Huh-7 cells at 30 uM preincubated with cell culture for 1 hr followed by pseudovirus infection measured after 48 hrs by luciferase reporter gene assay relative to control; assay type: functional; settings: Severe acute respiratory syndrome coronavirus 2, Huh-7, time 49 hrs
[9] = Antioxidant activity assessed as DPPH radical scavenging activity at 200 uM measured after 2 mins by ESR spectroscopy relative to control; assay type: functional
[10] = Inhibition of C-terminal GST-tagged full-length recombinant SARS-CoV 3CLpro expressed in Escherichia coli BL21(DE3) using MCA-AVLQSGFR-Lys(Dnp)-Lys-NH2 as substrate preincubated for 10 mins followed by substrate addition measured for 3.5 mins by FRET assay; set-up: species or system Severe acute respiratory syndrome-related coronavirus
[11] = Antioxidant activity assessed as DPPH radical scavenging activity at 50 uM measured after 2 mins by ESR spectroscopy relative to control; assay type: functional
[12] = Cytotoxicity against African green monkey Vero cells; assay type: toxicity, cell-based; settings: chlorocebus sabaeus
[13] = target: Xanthine dehydrogenase/oxidase (Bos taurus, UniProt P80457); assay: Inhibition of bovine milk xanthine oxidase using xanthine as substrate preincubated for 30 mins followed by substrate addition measured for 200 secs by spectrophotometry
Sequence of Xanthine dehydrogenase/oxidase (Bos taurus, UniProt P80457) (P80457 whole entry): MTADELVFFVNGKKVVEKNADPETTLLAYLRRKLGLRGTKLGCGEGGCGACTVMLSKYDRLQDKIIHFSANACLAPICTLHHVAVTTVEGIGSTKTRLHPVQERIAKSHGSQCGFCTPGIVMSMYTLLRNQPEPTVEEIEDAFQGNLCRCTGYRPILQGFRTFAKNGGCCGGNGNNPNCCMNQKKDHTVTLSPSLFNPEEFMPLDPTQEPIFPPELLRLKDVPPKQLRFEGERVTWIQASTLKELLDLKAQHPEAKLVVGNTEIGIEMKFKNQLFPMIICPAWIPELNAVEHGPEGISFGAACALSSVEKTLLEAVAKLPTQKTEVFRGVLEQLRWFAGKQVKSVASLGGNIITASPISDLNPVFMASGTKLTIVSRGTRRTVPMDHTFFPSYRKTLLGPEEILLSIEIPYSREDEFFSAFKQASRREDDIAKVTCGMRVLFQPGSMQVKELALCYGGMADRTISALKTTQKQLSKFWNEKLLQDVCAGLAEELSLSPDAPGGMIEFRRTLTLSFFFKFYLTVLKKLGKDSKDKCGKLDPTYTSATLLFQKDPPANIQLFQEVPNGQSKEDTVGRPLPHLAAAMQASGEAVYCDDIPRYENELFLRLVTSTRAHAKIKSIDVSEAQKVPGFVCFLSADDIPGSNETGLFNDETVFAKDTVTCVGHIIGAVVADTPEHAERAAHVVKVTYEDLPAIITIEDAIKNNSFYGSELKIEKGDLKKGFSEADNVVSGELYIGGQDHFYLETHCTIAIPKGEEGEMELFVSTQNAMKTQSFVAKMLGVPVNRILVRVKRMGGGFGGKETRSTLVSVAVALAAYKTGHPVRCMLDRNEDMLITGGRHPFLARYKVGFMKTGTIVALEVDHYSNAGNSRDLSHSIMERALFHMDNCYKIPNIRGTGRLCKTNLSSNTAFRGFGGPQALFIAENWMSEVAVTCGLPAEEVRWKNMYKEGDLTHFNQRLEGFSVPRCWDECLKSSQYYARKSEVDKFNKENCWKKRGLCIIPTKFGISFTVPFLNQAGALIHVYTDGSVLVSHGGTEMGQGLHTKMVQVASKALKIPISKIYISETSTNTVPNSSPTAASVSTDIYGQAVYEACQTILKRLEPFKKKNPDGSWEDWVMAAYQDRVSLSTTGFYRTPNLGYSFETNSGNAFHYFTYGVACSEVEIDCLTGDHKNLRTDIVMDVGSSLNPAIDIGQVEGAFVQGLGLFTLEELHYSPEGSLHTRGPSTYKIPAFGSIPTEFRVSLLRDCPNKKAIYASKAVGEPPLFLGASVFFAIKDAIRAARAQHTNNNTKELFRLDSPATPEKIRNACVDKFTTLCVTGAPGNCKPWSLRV

[14] = Aqueous solubility of compound; assay type: physicochemical; settings: buffer
[15] = Cytotoxicity against African green monkey Vero cells incubated for 4 days by MTS assay; assay type: toxicity, cell-based; settings: chlorocebus sabaeus, time 4 day
[16] = Antioxidant activity assessed as DPPH radical scavenging activity at 25 uM measured after 2 mins by ESR spectroscopy relative to control; assay type: functional
[17] = target: T1, Xanthine dehydrogenase/oxidase (Homo sapiens, UniProt P47989); assay: Inhibition of xanthine oxidase (unknown origin)
T1 sequence (P47989 whole entry): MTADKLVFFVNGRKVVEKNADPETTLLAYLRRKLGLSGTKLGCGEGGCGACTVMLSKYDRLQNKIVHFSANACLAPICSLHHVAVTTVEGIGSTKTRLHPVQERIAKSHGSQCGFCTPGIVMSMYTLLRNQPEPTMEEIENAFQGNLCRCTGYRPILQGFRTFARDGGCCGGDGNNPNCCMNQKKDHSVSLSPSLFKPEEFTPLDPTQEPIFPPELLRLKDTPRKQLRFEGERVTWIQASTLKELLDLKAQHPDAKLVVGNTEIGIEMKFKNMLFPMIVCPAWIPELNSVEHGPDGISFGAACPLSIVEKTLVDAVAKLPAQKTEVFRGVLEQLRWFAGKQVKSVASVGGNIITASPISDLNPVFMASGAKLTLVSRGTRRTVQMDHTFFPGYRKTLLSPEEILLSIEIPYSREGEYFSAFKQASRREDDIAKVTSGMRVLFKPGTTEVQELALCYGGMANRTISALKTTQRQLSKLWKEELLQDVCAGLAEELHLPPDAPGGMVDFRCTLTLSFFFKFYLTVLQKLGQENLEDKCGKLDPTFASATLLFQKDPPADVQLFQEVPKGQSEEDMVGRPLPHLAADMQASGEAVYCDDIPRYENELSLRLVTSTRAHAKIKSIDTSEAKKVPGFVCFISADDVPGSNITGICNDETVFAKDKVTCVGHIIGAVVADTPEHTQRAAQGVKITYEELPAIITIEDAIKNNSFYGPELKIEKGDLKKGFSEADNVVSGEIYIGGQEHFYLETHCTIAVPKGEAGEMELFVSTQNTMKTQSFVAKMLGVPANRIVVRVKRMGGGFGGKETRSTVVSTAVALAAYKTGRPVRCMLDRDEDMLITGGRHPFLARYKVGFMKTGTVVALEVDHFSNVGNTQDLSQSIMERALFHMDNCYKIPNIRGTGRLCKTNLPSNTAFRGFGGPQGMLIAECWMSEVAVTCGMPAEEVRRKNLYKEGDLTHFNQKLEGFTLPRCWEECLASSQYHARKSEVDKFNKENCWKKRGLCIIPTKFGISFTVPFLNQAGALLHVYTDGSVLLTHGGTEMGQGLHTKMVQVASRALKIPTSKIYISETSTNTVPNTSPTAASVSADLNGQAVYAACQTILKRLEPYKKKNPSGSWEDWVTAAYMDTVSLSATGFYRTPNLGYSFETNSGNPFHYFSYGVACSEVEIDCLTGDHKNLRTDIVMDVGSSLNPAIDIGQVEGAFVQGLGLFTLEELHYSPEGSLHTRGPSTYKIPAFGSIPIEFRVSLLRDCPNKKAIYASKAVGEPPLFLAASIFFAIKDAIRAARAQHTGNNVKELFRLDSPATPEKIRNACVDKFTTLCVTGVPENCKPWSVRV

Human coronavirus OC43 = assay: as §1, with “HCoV-OC43” for “B-CoV”, “12.5” for “25”; assay type: functional, HRT-18 cell line; settings: Betacoronavirus 1, HRT-18, time 97 hrs
[18] = Cytotoxicity against human Calu-3 cells incubated for 4 days by MTS assay; assay type: toxicity, cell-based; settings: time 4 day
[19] = Cytotoxicity against African green monkey Vero cells by CCK8 assay; assay type: toxicity, cell-based; settings: chlorocebus sabaeus
[20] = AUC (0 to 360 min) in Sprague-Dawley rat at 224 umol/kg, po; assay type: ADME; settings: in vivo, 6 h, dose 224 µmol/kg
[21] = target: Replicase polyprotein 1ab (Severe acute respiratory syndrome coronavirus 2) (UniProt P0DTD1); assay: Inhibition of SARS-CoV-2 3CLpro at 100 ug/ml preincubated for 30 mins followed by substrate addition measured after 4 hrs by fluorescence assay relative to control; settings: dose 100.0 µg/ml, time 4.5 hrs
[22] = tested on: Severe acute respiratory syndrome coronavirus 2; assay: Binding affinity to SARS-CoV-2 nsp5 assessed as change in melting temperature preincubated for 20 mins followed by heating by thermal shift assay
[23] = Cmax in Sprague-Dawley rat at 224 umol/kg, po measured for 2160 mins; assay type: ADME, organism-based; settings: in vivo, 36 h, dose 224 µmol/kg
SARS-CoV-2 [24] = assay: Antiviral activity against SARS-CoV-2 TY/WK-521 infected in African green monkey Vero E6 cells assessed as reduction in viral replication preincubated with cell culture for 1 hr and further infected with virus for 2 hrs followed by compound washout and subsequent addition of medium containing compounds measured for 48 hrs post-infection by qRT-PCR analysis; assay type: functional, organism-based; settings: Severe acute respiratory syndrome coronavirus 2, TY/WK-521, Vero C1008
SARS-CoV-2 [25] = assay: Antiviral activity against SARS-CoV-2 infected in African green monkey Vero cells assessed as reduction in viral replication; assay type: functional, organism-based; settings: Severe acute respiratory syndrome coronavirus 2, Vero
[26] = target: Angiotensin-converting enzyme 2 (Homo sapiens) (UniProt Q9BYF1); assay: Inhibition of ACE2 in human SAEC cells at 25 uM incubated for 6 days by ELISA relative to control; assay type: cell-based; settings: time 6.0 day
Sequence of Angiotensin-converting enzyme 2 (Homo sapiens) (Q9BYF1 18-805 limits assumed): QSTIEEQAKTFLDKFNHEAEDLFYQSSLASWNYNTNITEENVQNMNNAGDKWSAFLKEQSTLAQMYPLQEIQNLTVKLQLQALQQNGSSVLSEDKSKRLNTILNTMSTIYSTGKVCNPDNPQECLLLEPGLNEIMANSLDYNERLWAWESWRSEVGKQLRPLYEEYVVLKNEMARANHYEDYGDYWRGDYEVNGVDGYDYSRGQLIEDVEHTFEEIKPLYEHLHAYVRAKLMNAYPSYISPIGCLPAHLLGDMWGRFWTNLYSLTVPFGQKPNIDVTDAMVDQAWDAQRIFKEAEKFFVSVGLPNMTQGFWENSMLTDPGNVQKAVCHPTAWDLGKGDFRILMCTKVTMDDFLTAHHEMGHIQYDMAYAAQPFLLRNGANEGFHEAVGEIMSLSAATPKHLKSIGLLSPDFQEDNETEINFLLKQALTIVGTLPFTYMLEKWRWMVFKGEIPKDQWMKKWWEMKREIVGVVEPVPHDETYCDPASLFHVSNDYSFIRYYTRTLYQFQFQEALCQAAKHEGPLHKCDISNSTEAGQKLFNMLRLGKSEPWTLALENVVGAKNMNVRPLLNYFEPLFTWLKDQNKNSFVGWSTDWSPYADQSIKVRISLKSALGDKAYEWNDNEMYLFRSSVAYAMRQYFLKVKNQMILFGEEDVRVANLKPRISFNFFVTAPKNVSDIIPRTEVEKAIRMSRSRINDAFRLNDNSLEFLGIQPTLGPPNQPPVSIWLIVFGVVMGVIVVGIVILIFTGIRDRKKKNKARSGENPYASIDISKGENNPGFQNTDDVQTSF

[27] = Inhibition of SARS-CoV-2 nsp15 endonuclease activity using 5'-FAM-dArUdAdAdA-TAMRA-3' as substrate measure for 1 hr by fluorescence based assay; set-up: species or system Severe acute respiratory syndrome coronavirus 2
SARS-CoV-2 [28] = assay: Antiviral activity against SARS-CoV-2 NCCP 43326 infected in African green monkey Vero cells assessed as reduction in viral infection preincubated with cell culture for 30 mins and further infected with virus measured after 72 hrs by plaque reduction neutralization test method; assay type: functional, organism-based; settings: Severe acute respiratory syndrome coronavirus 2, NCCP 43326, Vero
[29] = Oral bioavailability in rat; assay type: ADME, organism-based; settings: in vivo
[30] = target: Angiotensin-converting enzyme 2 (Homo sapiens) (UniProt Q9BYF1); assay: Synergistic inhibition of ACE2 in human SAEC cells at 25 uM incubated for 6 days in presence of ascorbic acid by ELISA relative to control; assay type: cell-based; settings: time 6.0 day
[31] = Apparent permeability in human Caco-2 cells measured for 30 to 180 mins by HPLC analysis; assay type: ADME, cell-based; settings: time 30-180 min
Influenza A virus [32] = assay: Antiviral activity against Influenza A virus H1N1 FM/1/47 infected in BALB/c mouse assessed as macrophage polarization in BALF at 80 mg/kg/day, po qd for 7 days by flow cytometry (reference value: 95 %); assay type: functional; settings: time 7 day
Renin = target: T2, Renin (Homo sapiens, UniProt P00797); assay: Inhibition of recombinant human renin using Arg-Glu(EDANS)-lle-His-Pro-Phe-His-Leu-Val-lle-His-Thr-Lys(dabcyl)-Arg as substrate incubated for 5 to 10 mins by fluorescence based assay
T2 sequence (P00797 whole entry): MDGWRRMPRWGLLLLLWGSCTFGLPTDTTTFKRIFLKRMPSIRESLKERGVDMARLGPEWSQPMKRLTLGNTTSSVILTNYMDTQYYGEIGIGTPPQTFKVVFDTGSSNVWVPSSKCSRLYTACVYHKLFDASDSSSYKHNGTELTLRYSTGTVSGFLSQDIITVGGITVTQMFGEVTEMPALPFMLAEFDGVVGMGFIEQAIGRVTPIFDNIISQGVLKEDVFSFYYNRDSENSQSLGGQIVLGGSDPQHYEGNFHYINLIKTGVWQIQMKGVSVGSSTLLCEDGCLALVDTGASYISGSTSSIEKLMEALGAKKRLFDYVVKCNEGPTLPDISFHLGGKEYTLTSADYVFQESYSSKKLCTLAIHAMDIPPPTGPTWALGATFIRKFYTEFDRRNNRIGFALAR

[33] = target: Angiotensin-converting enzyme (Homo sapiens, UniProt P12821); assay: Inhibition of ACE (unknown origin) using Hippuryo-histidyl-leucine as substrate incubated for 40 mins by absorbance based assay
Sequence of Angiotensin-converting enzyme (P12821 whole entry): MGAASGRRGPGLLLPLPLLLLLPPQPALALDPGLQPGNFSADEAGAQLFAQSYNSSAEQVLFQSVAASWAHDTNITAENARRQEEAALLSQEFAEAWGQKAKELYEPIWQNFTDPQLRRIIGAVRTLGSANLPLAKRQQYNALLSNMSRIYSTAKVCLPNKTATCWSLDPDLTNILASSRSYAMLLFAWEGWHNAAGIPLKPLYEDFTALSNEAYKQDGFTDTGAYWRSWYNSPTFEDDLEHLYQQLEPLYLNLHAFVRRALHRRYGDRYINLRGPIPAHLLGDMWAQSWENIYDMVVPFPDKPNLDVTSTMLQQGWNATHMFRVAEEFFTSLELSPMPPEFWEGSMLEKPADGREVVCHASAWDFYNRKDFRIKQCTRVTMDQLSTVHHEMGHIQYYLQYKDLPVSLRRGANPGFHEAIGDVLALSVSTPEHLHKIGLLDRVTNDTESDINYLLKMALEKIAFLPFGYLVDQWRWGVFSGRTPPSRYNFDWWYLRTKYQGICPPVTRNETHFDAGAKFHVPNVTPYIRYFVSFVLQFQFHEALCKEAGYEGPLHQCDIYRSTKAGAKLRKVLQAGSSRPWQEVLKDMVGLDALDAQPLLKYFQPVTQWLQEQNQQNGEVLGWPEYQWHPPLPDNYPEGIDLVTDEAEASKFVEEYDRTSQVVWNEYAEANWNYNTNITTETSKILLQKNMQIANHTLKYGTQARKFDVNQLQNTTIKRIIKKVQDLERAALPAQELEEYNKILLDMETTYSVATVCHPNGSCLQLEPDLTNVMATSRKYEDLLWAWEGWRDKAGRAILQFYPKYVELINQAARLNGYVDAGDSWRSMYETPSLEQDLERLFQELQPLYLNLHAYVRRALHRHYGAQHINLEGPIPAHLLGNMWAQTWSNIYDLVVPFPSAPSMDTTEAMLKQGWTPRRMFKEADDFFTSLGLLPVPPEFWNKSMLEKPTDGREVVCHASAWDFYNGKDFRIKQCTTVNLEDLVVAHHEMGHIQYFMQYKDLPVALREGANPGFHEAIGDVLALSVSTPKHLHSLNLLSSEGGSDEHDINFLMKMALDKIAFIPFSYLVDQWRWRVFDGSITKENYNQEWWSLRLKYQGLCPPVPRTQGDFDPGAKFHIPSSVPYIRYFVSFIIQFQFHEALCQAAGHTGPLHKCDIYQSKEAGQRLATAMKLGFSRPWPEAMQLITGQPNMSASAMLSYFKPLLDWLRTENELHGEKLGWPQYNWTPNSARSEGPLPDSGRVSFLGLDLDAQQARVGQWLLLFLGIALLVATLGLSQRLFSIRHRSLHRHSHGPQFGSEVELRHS

[34] = Cytotoxicity against African green monkey Vero E6 cells assessed as reduction in cell viability incubated for 3 days by MTT assay; assay type: toxicity, cell-based, Vero C1008; settings: chlorocebus sabaeus, time 3 day
[35] = Solubility of compound in water; assay type: physicochemical
Influenza A virus [36] = assay: Antiviral activity against Influenza A virus H1N1 FM/1/47 infected in BALB/c mouse assessed as decrease in recruitment of M1-polarized CD11b+ and F4/80+ macrophages in BALF at 80 mg/kg/day, po qd for 7 days by flow cytometry relative to control; assay type: functional; set-up: scale not given: the % may be the effect or the level left; settings: time 7 day
[37] = target: T1, Xanthine dehydrogenase/oxidase; assay: Inhibition of xanthine oxidase (unknown origin) using xanthine as substrate preincubated for 30 mins followed by substrate addition by spectrophotometry

SMILES: CC(=O)Nc1ccc(C)c(C(=O)N[C@H](C)c2cccc3ccccc23)c1
- IC50 [1]: 1.73 µM

SMILES: O=c1cc(-c2ccccc2)oc2cc(O)c(O)c(O)c12 [BAICALEIN]
- AUC [2]: 927.2 nM.min/ml
- bioavailability [3]: 13.1%
- ΔTm [4]: 3.9 °C
- ΔTm [5]: 1.5 °C
- AUC [6]: 297.6 nM.min/ml
- inhibition at 25 µg/mL (Bovine coronavirus): 89.8%
- inhibition [7]: < 50%
- inhibition at 30 µM (SARS-CoV-2 [8]): 14.6%
- Activity [9]: > 50%
- IC50 [10]: 1.18 µM
- Activity [11]: 55%
- CC50 [12]: > 200 µM
- IC50 [13]: 7.54 µM
- solubility [14]: 16.8 µg/mL (≈ 62.2 µM)
- CC50 at 96 h [15]: 8.6 µM
- Activity [16]: 69%
- IC50 [17]: 3.12 µM
- inhibition at 12.5 µg/mL (Human coronavirus OC43): 100%
- CC50 at 96 h [18]: 9.1 µM
- CC50 [19]: > 500 µM
- AUC [20]: 2980.5 nM.min/ml
- inhibition [21]: 94.7%
- ΔTm [22]: 0.9 °C
- Cmax [23]: 13.6 nM/ml

SMILES: O=C(O)[C@H]1O[C@@H](Oc2cc3oc(-c4ccccc4)cc(=O)c3c(O)c2O)[C@H](O)[C@@H](O)[C@@H]1O [BAICALIN]
- EC50 (SARS-CoV-2 [24]): 8.8 µM
- EC50 (SARS-CoV-2 [25]): 10.3 µM
- inhibition [26]: 75%
- IC50 [27]: 7.98 µM
- EC50 (SARS-CoV-2 [28]): 83.3 µM
- Activity [11]: 17%
- F [29]: 2.2%
- CC50 [12]: > 200 µM
- inhibition [30]: 82%
- IC50 [13]: 123 µM
- Papp [31]: 0.037 ×10⁻⁶ cm/s
- CC50 at 96 h [15]: > 100 µM
- Activity (Influenza A virus [32]): 97%
- Activity [16]: 42%
- IC50 [17]: 157 µM
- CC50 at 96 h [18]: > 100 µM
- IC50 (Renin): 120 µM
- IC50 [33]: 2240 µM
- CC50 at 72 h [34]: > 1000 µM
- AUC [20]: 1943.7 nM.min/ml
- solubility [35]: 67 µg/mL (≈ 150 µM)
- Activity (Influenza A virus [36]): ~90%
- IC50 [37]: 55.6 µM
- Cmax [23]: 2.9 nM/ml
